Assay results published in patent publication US20150216871A1, “Use of a Humic Acid Preparation for Treating Warm-Blooded Animals” (WH […] WEINBÖHLA GMBH, priority 2012, published 2015).

What was measured:
Enterococcus faecalis = assay: MIC of glyphosate and neutralisation by CLK-GA, micro dilution method in RCM Bouillon; assay type: cell-based
Source text: (§1) The pathogen Enterococcus faecalis was isolated from the microalgae Chlorella vulgaris to citrate-acid-tween-carbonate (CATC) agar. Suspicious colonies (gram positive, catalase negative cocci) were inoculated to blood agar plates (oxoid) and differentiated by using biochemical tests. The species differentiation was confirmed by means of MALDI-TOF-MS. The isolation of the pathogen Bacillus badius was done from Chlorella vulgaris to blood agar (oxoid). The species differentiation was done based on biochemical parameters. The confirmation was done by means of MALDI-TOF-MS.
(§2) Commercially available glyphosate preparation Roundup UltraMax® (450 g/l glyphosate as isopropylamine salt on SL formulation) was used for the test.
(§3) The value for the minimal inhibitory concentration of glyphosate for the indicator germs (MIC) was determined by using micro dilution method (MID) in accordance with the current specifications of the National Committee for Clinical Laboratory Standards (NCCLS). It was carried out for E. faecalis and B. Badius in RCM Bouillon (SIFIN).
(§4) The determination of the neutralising effect of humic acid product CLK-GA for glyphosate was done through glyphosate MIC. The MIC determinations for glyphosate and glyphosate-CLK-GA mixture was carried out in RCM Bouillon as described above. CLK-GA was used in the concentrations of 1.0, 0.5 and 0.25 mg/ml. The neutralisation of glyphosate was carried out in RCM Bouillon in the concentrations of 300 μg/ml, 600 μg/ml, 1200 μg/ml and 2400 μg/ml mixed with 1 mg/ml, 0.5 mg/ml and 0.25 mg/ml CLK-GA and kept overnight at 37° C. After centrifugation (3000 U/min) and filtration of the individual formulations through a centrifugal filter (3Kda, VWR, Mexico)m […] KbE E. faecalis and B. Badius was given to these. After growing it overnight at 37° C., the contents of each tube was spread on CATC agar or blood agar and was evaluated after 48 h.

Bacillus badius = assay: as above; assay type: cell-based
Source text: as §1, §2, §3, §4

[1] = 10^4 KbE/ml suspension, end concentration 300 μg/ml glyphosate and/or 1 mg/ml CLK-GA

O=C(O)CNCP(=O)(O)O [Glyphosate, glyphosate]
growth / elimination of germs in suspension (Enterococcus faecalis; [1]): growth was absent
MIC (Enterococcus faecalis; Enterococcus faecalis, read-out: MIC values Glyphosate): 200 µg/mL
growth / elimination of germs in suspension (Bacillus badius; [1]): growth was absent
MIC (Bacillus badius; Pseudobacillus badius, read-out: MIC values Glyphosate): 150 µg/mL
